Reference: patent US7250157B2, “Dermatological compositions and methods” (Applied Genetics Incorporated Dermatics, priority 1996, dated 2007)
Values joined by “and” are separate entries in the source; they are usually repeats but may differ in a detail not shown here. Identical values can stand only once. Like-named read-outs stand apart in the source and are kept apart here.

What was measured:
[1] = tested on: Normal human epidermal melanocytes (NHEMs); experiment: Melanin induction in normal human epidermal melanocytes; assay type: cell-based
Method: Normal human epidermal melanocytes (NHEMs) were examined for induction of melanogenesis using cells and media from Clonetics Corporation (San Diego, Calif.). Cells were cultured exactly as specified by the supplier.

[2] = tested on: Cloudman S91 mouse melanoma cell line; experiment: Microscopic morphology (differentiation) of S91 cells; assay type: cell-based
Method: The Cloudman S91 mouse melanoma cell line was obtained from American Type Culture Collection (ATCC). Cells were cultured in Dulbecco's Modified Eagles Medium (DMEM) containing 10% calf serum, 2 mM L-glutamine, 10 U Penicillin/ml and 10 ug Streptomycin/ml according to a previously published protocol (Eller, et al., Proc. Natl. Acad. Sci. 93:1087-92. 1996). For testing propylene glycol and analogues for induction of melanogenesis, S91 cells were plated at 10^5 cells/35 mm dish in 10% calf serum. One day after plating, media was removed and replaced with media containing 2% calf serum and test compounds (Eller, et al., 1996). Cells were cultured for 6 days at 37° C. in 5% CO2 in a humidified incubator. Following this treatment period, cells were examined microscopically and the portion of dedifferentiated and differentiated cells was estimated. Previous studies have shown that dedifferentiated S91 cells have a rounded, spindly appearance while differentiated S91 cells have a flattened, cuboidal, multipolar and dendritic appearance (Orlow, et al., Exp. Cell Res. 191:209-218, 1990).

[3] = tested on: tyrosinase activity in S91 mouse melanoma cells; experiment: Induction of tyrosinase activity in S91 cells; settings: for Tyrosinase dpm/hr 10^3 Cells / Tyrosinase dpm/hr ug Protein: 300 mM PG-1,2, 25 mM 3,3-M-1,2-BD, 50 mM 1,2-cs-CPD, 0.5 mM 2,3-Pyd, 0.1 mM IBMX, mean ±SE
[4] = tested on: Cloudman S91 mouse melanoma cell line; experiment: Trypsinization detachment time of S91 cells; assay type: cell-based
Method: Following this microscopic examination, cells were detached from dishes by trypsin. The time required for detachment by trypsin was recorded as an additional indicator of the phenotypic effects of test compounds. For each treatment, a subsample of cells was counted to determine the effects of treatment compounds on cellular proliferation. The remainder of cells were used for determination of melanin content. Melanin was extracted from cells by vortexing for 15 min in 1N NaOH. Standards were prepared by dissolving melanin (Sigma) in 1 N NaOH (Eller, et al., 1996). Absorbance of standards and samples was measured at 475 nm. Melanin was expressed as pg melanin/cell.

[5] = tested on: normal human epidermal melanocytes (NHEM); experiment: Morphological differentiation of NHEM; assay type: cell-based; settings: 5 mM
Method: Additionally, the length of dendrites was increased approximately 2-3-fold following treatment with 5 mM 5-NBene-2,2-DM, and there was an increase in the number of secretatory vesicles at the termini of dendrites (arrows in FIGS. 3A and 3B). […] Increased secretion of melanosomes resulting from treatment with 5 mM 5-NBene-2,2-DM was reflected in increased extracellular particulate tyrosinase activity (Example 7, Table 11).

[6] = tested on: nitric oxide in cell-free media from S91 cells; experiment: Nitric oxide in cell-free media from S91 cells (Greiss reagent); assay type: cell-based, mouse; settings: 4 days
Method: In a related experiment, nitric oxide was measured in cell-free media from S91 cells following treatment with a range of concentrations of 2,3-cis/exo-pinanediol or 5-norbornene-2,2-dimethanol for 4 days. In biological fluids, nitric oxide is converted into nitrite and nitrate with seconds of production. Therefore, nitric oxide is measured by first converting nitrate to nitrite using nitrate reductase, followed by addition of Greiss reagent to detect nitrite as optical density at 550 nm (Moshage, et al., 1995, Clin. Chem. 41:892-896; Schmidt, et al., 1995, Biochemica 2:22)). […] Moreover, the relative melanogenic potency of 2,3-cis/exo-pinanediol and 5-norbornene-2,2-dimethanol shown in FIG. 5 paralleled the relative potency of these compounds with regards to induction of nitric oxide (Table 17). […] It follows that measurement of induction of nitric oxide, cGMP or PKG may provide biochemically relevant screening assays for compounds that may be melanogenic. Thus, the utilization of these assays to screen compounds for melanogenic activity is claimed in the present invention.

[7] = Experiment 1, 5 mM 5-NBene-2,2-DM
[8] = Experiment 2, 5 mM 5-NBene-2,2-DM
[9] = Experiment 3, 5 mM 5-NBene-2,2-DM

`CC(O)CO` (stereo not shown) [1,2-propanediol, 1,2-Propanediol (Propylene Glycol)] was tested, and the “Concentration Required for ≧1.5-fold Melanin Induction in NHEMs” value [1] was 150 mM, the “Morphology Flattened Cuboidal” value ([2]; 50 mM) was 25% and the “Morphology Rounded Spindly” value ([2]; 50 mM) was 75%. For the same compound, the “Morphology Flattened Cuboidal” value ([2]; 150 mM) was 50%, the “Morphology Rounded Spindly” value ([2]; 150 mM) was 50% and the “Morphology Flattened Cuboidal” value ([2]; 1% (136 mM)) was 10%. The “Morphology Rounded Spindly” value ([2]; 1% (136 mM)) was 90%, the “Morphology Flattened Cuboidal” value ([2]; 2% (272 mM)) was 30% and the “Morphology Rounded Spindly” value ([2]; 2% (272 mM)) was 70%. For the same compound, the “Morphology Flattened Cuboidal” value ([2]; 3% (408 mM)) was 60%, the “Morphology Rounded Spindly” value ([2]; 3% (408 mM)) was 40% and the “Morphology Flattened Cuboidal” value ([2]; 4% (544 mM)) was 85%. For the same compound, the “Morphology Rounded Spindly” value ([2]; 4% (544 mM)) was 15%, the “Morphology Flattened Cuboidal” value ([2]; 5% (680 mM)) was 100% and the “Tyrosinase dpm/hr 10^3 Cells” value ([3]; 5 mM 5-NBene-2,2-DM) was 292 ± 104 dpm/hr/10^3 Cells. The “Tyrosinase dpm/hr ug Protein” value ([3]; 5 mM 5-NBene-2,2-DM) was 1003 ± 370 dpm/hr/ug Protein, the “Trypsinization Detachment Time” value ([4]; 50 mM) was 3 min and the “Trypsinization Detachment Time” value ([4]; 150 mM) was 6 min. The “Trypsinization Detachment Time” value ([4]; 1% (136 mM)) was “≦6 min”, the “Trypsinization Detachment Time” value ([4]; 2% (272 mM)) was “≦9 min” and the “Trypsinization Detachment Time” value ([4]; 3% (408 mM)) was “≦12 min”. The “Trypsinization Detachment Time” value ([4]; 4% (544 mM)) was “≦15 min” and the “Trypsinization Detachment Time” value ([4]; 5% (680 mM)) was “≦15 min”.

In the case of `OCC1(CO)CC2C=CC1C2` (stereo not shown) [5-NBene-2,2-DM, 5-norbornene-2,2-dimethanol], the “increase of length of dendrites of NHEM” value [5] was 2-3 fold, the “morphological changes of NHEM (in words)” value [5] was “conversion of cells from a bipolar phenotype to a multidendritic phenotype” and the “Concentration Required for ≧1.5-fold Melanin Induction in NHEMs” value ([1]; listed as 5-Norbornene-2,2-Dimethanol) was 5 mM. The “Concentration Required for ≧1.5-fold Melanin Induction in NHEMs” value ([1]; listed as 5-norbornene-2,2-dimethanol) was ≤ 5 mM, the “nmoles NO/10^6 Cells” value ([6]; 1 mM) was 11.6 ± 1.1 nmoles NO/10^6 Cells and the “uM NO” value ([6]; 1 mM) was 4.80 ± 0.32 µM. For the same compound, the “nmoles NO/10^6 Cells” value ([6]; 2.5 mM) was 21.4 ± 3.7 nmoles NO/10^6 Cells, the “uM NO” value ([6]; 2.5 mM) was 5.46 ± 0.32 µM and the “nmoles NO/10^6 Cells” value ([6]; 5 mM) was 72.9 ± 10.5 nmoles NO/10^6 Cells. The “uM NO” value ([6]; 5 mM) was 6.36 ± 0.12 µM, the “Fold Induction of Tyrosinase Relative to Controls” value ([3]; 0.5 mM (Table 16)) was 2.8X and the “Fold Induction of Tyrosinase Relative to Controls” value ([3]; 1 mM (Table 15)) was 4.0X. The “Fold Induction of Tyrosinase Relative to Controls” value ([3]; 1 mM (Table 16)) was 3.6X, the “Fold Induction of Tyrosinase Relative to Controls” value ([3]; 2 mM (Table 15)) was 12.9X and the “Fold Induction of Tyrosinase Relative to Controls” value ([3]; 2.5 mM (Table 16)) was 14.5X. The “Tyrosinase Relative to Control” value ([3]; 5 mM 5-NBene-2,2-DM) was 8.2X, the “Tyrosinase dpm/hr/ug Protein” value ([3]; 5 mM 5-NBene-2,2-DM) was 3273 dpm/hr/ug Protein and the “Tyrosinase dpm/hr/10^3 Cells, Avg.” value ([3]; 5 mM 5-NBene-2,2-DM, average of two) was 4381 dpm/hr/10^3 Cells. For the same compound, the “Tyrosinase dpm/hr/10^3 Cells” value ([3]; 5 mM 5-NBene-2,2-DM, single replicates) was 4515 dpm/hr/10^3 Cells and 4247 dpm/hr/10^3 Cells, the “Fold Induction of Tyrosinase Relative to Controls” value ([3]; 5 mM (Table 15)) was 41.9X and the “Fold Induction of Tyrosinase Relative to Controls” value ([3]; 5 mM (Table 16)) was 61.6X. The “Tyrosinase dpm/hr 10^3 Cells” value ([3]; 5 mM 5-NBene-2,2-DM) was 707 ± 54 dpm/hr/10^3 Cells, the “Tyrosinase dpm/hr ug Protein” value ([3]; 5 mM 5-NBene-2,2-DM) was 1643 ± 105 dpm/hr/ug Protein and the “% of 5-NBene-2,2-DM” value [3, 7] was 100%. For the same compound, the “Tyrosinase induction dpm/hr/10^3 cells” value [3, 7] was 5018 ± 415^1 dpm/hr/10^3 cells, the “% of 5-NBene-2,2-DM” value [3, 8] was 100% and the “Tyrosinase induction dpm/hr/10^3 cells” value [3, 8] was 5640 ± 323 dpm/hr/10^3 cells. The “% of 5-NBene-2,2-DM” value [3, 9] was 100% and the “Tyrosinase induction dpm/hr/10^3 cells” value [3, 9] was 6388 ± 460^1 dpm/hr/10^3 cells.
